Results: publication PMC5238433 (Scientific Reports, 2017)
Entries after “also recorded” stand apart in the source; their conditions may differ.

Experiments:
APJ homodimer = test: MALDI-TOF MS of immunoprecipitated APJ complex after treatment with HIV TAT-TMD interference peptides; type: binding, human; conditions: peptide 4 μM, 60 min, 37 °C; for species detected by MALDI-TOF MS / effect of peptide on APJ homodimerization: cells transfected with APJ, anti-APJ immunoprecipitation, MALDI-TOF linear positive mode, mass range 4–10 kDa, sinapic acid; for binding to APJ (peptides encoding TMDs, MS): MALDI-TOF
Excerpt: TMDs are important for the formation of head-to-head interfaces in class A GPCR dimers. To identify dimerization interfaces in the seven TMDs of APJ, the effects of cell-penetrating interference peptides (containing the sequence of the hydrophobic transmembrane helices) on APJ homodimerization were examined by MS.
Figure 5 The effects of interference peptides on apelin receptor (APJ) homodimerization as measured by matrix assisted laser desorption […] time-of-flight (MALDI-TOF) mass spectrometry.
The identity of the TMD peptide sequences was analyzed with liquid chromatography (LC)-MS.
MS was performed to identity APJ dimer interfaces in samples treated with TMD peptides. Cells were transfected with APJ and, 48 h later, treated with or without the indicated HIV TAT-TMD fused peptides (4 μM) for 60 min at 37 °C. Extracted proteins were immunoprecipitated using an anti-APJ antibody. Protein A/G PLUS-agarose beads were incubated with proteins for 2 h and washed four times with lysis buffer. The APJ complex was eluted from beads as described previously. Then, the endogenous APJ complex was analyzed with an AXIMA matrix-assisted laser desorption/ionization time-of-flight (MALDI-TOF) system (Shimazdu) in linear positive mode. The mass range was 4–10 kDa and the matrix was Sinapic Acid (SA), 10 mg/ml (50% acetonitrile (ACN), 50% H2O, 0.1% […] (TFA)). The results were calibrated with a Shimadzu MALDI calibration kit (Laser BioLabs).

[1] = test system: APJ dimer (APJ-Rluc / APJ-EGFP); test: BRET, effect of interference peptides on APJ homodimers; type: cell-based, human; conditions: for effect on APJ dimer BRET signals / reduction of APJ dimer BRET signals: CHO cells, APJ-Rluc:APJ-EGFP 1:3, peptide 4 μM, 37 °C, four independent experiments in triplicate; for disruption of APJ (homo)dimerization (statement in words): interference peptides 4 μM, in vitro, by BRET and MS; for reduction of APJ dimer BRET signals: P < 0.01, one range for TMD1, 2, 3 and 4
Excerpt: Figure 7 The effect of interference peptides on apelin receptor (APJ) dimers. […] BRET[1] was detected as described above.

APJ dimers = test: BiFC-BRET, Gα-Rluc8, APJ-VN173 and APJ-VC155, G protein activation by APJ dimers; type: cell-based, human
Excerpt: To explore the novel signaling of APJ dimers, we examined the signaling of APJ dimers using BiFC-BRET. […] Cells expressing Gα-Rluc8 and APJ-Venus served as a positive control, and two negative controls (Gα-Rluc8 and APJ-VN173, Gα-Rluc8 and APJ-VC155A) were also introduced. […] (Fig. S5). […] In addition, we have measured the expression levels of donor[23] and acceptor before experiment (Fig. 10).
Kinetics of ligand-induced BRET between Gα-Rluc8 (8 subtypes), APJ-VN173, and APJ-VC155. […] (A) Gαi1-Rluc8, APJ-VN173, and APJ-VC155; (B) Gαi2-Rluc8, APJ-VN173, and APJ-VC155; (C) Gαi3-Rluc8, APJ-VN173, and APJ-VC155; (D) Gαq-Rluc8, APJ-VN173, and APJ-VC155; (E) Gαs-Rluc8, APJ-VN173, and APJ-VC155; (F) Gαo-Rluc8, APJ-VN173, and APJ-VC155; (G) Gα12-Rluc8, APJ-VN173, and APJ-VC155; H. Gα13-Rluc8, APJ-VN173, and APJ-VC155.
APJ-VN173 and APJ-VC155 were generated by fusing either the N-terminal fragment of Venus (Venus N: amino acids 1–172) or the C-terminal fragment of Venus (Venus C: amino acids 156–239) to the C-terminus of the wild-type (wt) full-length apelin receptor. Gαi1-Rluc8, Gαi2-Rluc8, Gαi3-Rluc8, Gαq-Rluc8, Gαoa-Rluc8, and Gαs-Rluc8, pET-21a(+)-GFP, FLAG-BirA-APJ, and HA-AP-APJ were constructed as described previously.
(§1) To monitor constitutive APJ interactions, CHO cells were transfected with APJ-Rluc and APJ-EGFP plasmids at a ratio of 1:1, 1:2, 1:3, 1:4, 1:5, and 1:6 to express a constant amount of donor-labeled protein with increasing amounts of acceptor-labeled protein. At 24 h post-transfection, cells were trypsinized and plated on a 96 well microplate for 24 h in HEPES-buffered phenol red-free medium (Invitrogen, Life Technologies). Coelenterazine h (5 μM; Promega) was added for BRET measurements using a Tristar LB941 plate reader (Berthold) with an Rluc filter (400–475 nm) and a EGFP filter (500–550 nm). To monitor the induced interactions of APJ, BRET signals were measured as described above, with slight modifications. […] To measure the effects of interference peptides on APJ dimers, CHO cells were co-transfected with APJ-Rluc and APJ-EGFP (1:3) and incubated with interference peptides corresponding to TMD1, TMD2, TMD3, TMD4, TMD5, TMD6, and TMD7 at 37 °C (4 μM), and BRET[1] detected as described above.

[2] = test system: APJ homodimers (APJ-Rluc / APJ-EGFP); test: BRET, effect of agonist/antagonist treatment on APJ homodimerization; type: cell-based, human; conditions: CHO cells co-expressing APJ-Rluc and APJ-EGFP (1:1); concentration not given; four independent experiments in triplicate
Experimental: We further assessed APJ interactions by co-immunoprecipitation (Co-IP), BRET[1], and Förster resonance energy transfer (FRET). […] BRET studies were performed to confirm APJ homodimerization.
Figure 2 Assessment of apelin receptor (APJ) dimerization using co-immunoprecipitation (Co-IP) and bioluminescence resonance energy transfer (BRET) assays. (A) Assessment of APJ homodimerization with Co-IP. Chinese hamster ovary (CHO) cells were either not transfected (mock) or transfected with HA-APJ, Myc-APJ, or both (co-transfection). HA-APJ and Myc-APJ were also mixed (mix). Immunoprecipitated samples were resolved by SDS-PAGE and immunoblotted with an anti-Myc antibody (upper panel). […] (B) Assessment of APJ homodimerization with BRET[1]. (C) BRET saturation curves. (D) Assessment of effects of agonist-treatment on dimerization by BRET[1]. For BRET, four independent experiments were performed with triplicate samples and the results were expressed as the mean ± SEM of four experiments ([…] versus control group; NS, not significant versus unstimulated cells).
as §1

[3] = test system: APJ oligomers (APJ-Rluc, APJ-VN173, APJ-VC155); test: BiFC-BRET, effect of agonist/antagonist treatment on APJ oligomerization; type: cell-based, human; conditions: CHO cells co-expressing APJ-Rluc, concentration not given, four independent experiments in triplicate
Experimental: Additionally, BiFC-BRET assays were performed to detect APJ oligomerization in living cells. Two non-fluorescent fragments (pCE-BiFC-VN173 and pCE-BiFC-VC155) of Venus fluorescent protein were separately fused to APJ (APJ-VN173 and APJ-VC155) (Fig. 4A). CHO cells were then co-transfected with APJ-Rluc, APJ-VN173, and APJ-VC155 and observed with TIRFM.
Figure 4 Assessment of apelin receptor (APJ) oligomerization with bioluminescence resonance energy transfer - bimolecular fluorescence complementation (BiFC-BRET). (A) Principle of BiFC-BRET. The assay examines the formation of functional Venus by the complementation of protein fragments fused to APJ. Association of APJ enables formation of a bimolecular fluorescent complex. If all three tagged APJ proteins interact, BRET can occur. (B) TIRFM detection of APJ dimers (yellow particles) after BiFC. (C) Assessment of APJ oligomerization with BiFC-BRET. (D) Assessment of agonist-induced oligomerization.

[4] = APJ dimers (APJ-VN173 + APJ-VC155), CHO cells, 1 μM apelin-13, 30 min

| Substance | species detected by MALDI-TOF MS / effect of peptide on APJ homodimerization (APJ homodimer) | effect on APJ dimer BRET signals [1] | disruption of APJ (homo)dimerization (statement in words) [1] | binding to APJ (peptides encoding TMDs, MS) (APJ homodimer) | reduction of APJ dimer BRET signals [1] | BRET signal versus unstimulated cells (APJ homodimer formation) [2] | further results |
| --- | --- | --- | --- | --- | --- | --- | --- |
| LMNIFPYCTCISYVNSCLNPFLYYGRKKRRQRRR [TMD7, HIV TAT-fused interference peptide derived from human APJ transmembrane domain 7] | lacked the effect demonstrated by TMD1, 2, 3, and 4; also recorded: TMD7, APJ, and APJ dimers were detected | no significant effect | but not TMD5, 6, and 7, disrupted APJ dimerization | – | – | – | – |
| YGRKKRRQRRRFIASLAVADLTFVVTLPLWATYT [TMD2, HIV TAT-fused interference peptide derived from human APJ transmembrane domain 2] | TMD2, TMD2 dimers, TMD2 tetramers, APJ, [APJ + TMD2], APJ dimers, and [APJ + TMD2] dimers were detected | significantly reduced APJ dimer BRET signals | disrupted APJ dimerization; also recorded: can effectively disrupt the formation of APJ homodimers; also recorded: disrupted APJ homodimerization in vitro | can bind to APJ | 55–75% | – | – |
| apelin-13 | – | – | – | – | – | not significantly different to those of unstimulated cells | G protein activation, Gα12 (APJ dimers; [4]): not Gαi1, Gαi2, Gαs, Gα12, Gα13, and Gαo; G protein activation, Gα13 (APJ dimers; [4]): not Gαi1, Gαi2, Gαs, Gα12, Gα13, and Gαo; G protein activation, Gαi1 (APJ dimers; [4]): not Gαi1, Gαi2, Gαs, Gα12, Gα13, and Gαo; G protein activation, Gαi2 (APJ dimers; [4]): not Gαi1, Gαi2, Gαs, Gα12, Gα13, and Gαo; G protein activation, Gαi3 (APJ dimers; [4]): activate only Gαi3 and Gαq; G protein activation, Gαo (APJ dimers; [4]): not Gαi1, Gαi2, Gαs, Gα12, Gα13, and Gαo; G protein activation, Gαq (APJ dimers; [4]): activate only Gαi3 and Gαq; G protein activation, Gαs (APJ dimers; [4]): not Gαi1, Gαi2, Gαs, Gα12, Gα13, and Gαo; ligand-induced BRET change, cells expressing APJ tagged with VN173 and VC155 (APJ dimers; Gα-Rluc8 (8 subtypes), CHO cells, 1 μM apelin-13): an increase in BRET was observed only for Gαi3 and Gαq; ligand-induced BRET change, negative controls (APJ dimers; Gα-Rluc8 with APJ-VN173 only or APJ-VC155 only, 1 μM apelin-13): No changes in BRET were observed |
| [Ala13]apelin-13 | – | – | – | – | – | not significantly different to those of unstimulated cells | – |
| IFVNMYASVFCLTGLSFDRYLAIYGRKKRRQRRR [TMD3, HIV TAT-fused interference peptide derived from human APJ transmembrane domain 3] | TMD3, TMD3 dimers, TMD3 tetramers, APJ, [APJ + TMD3], APJ dimers, and [APJ + TMD3] dimers were detected | significantly reduced APJ dimer BRET signals | disrupted APJ dimerization; also recorded: can effectively disrupt the formation of APJ homodimers; also recorded: disrupted APJ homodimerization in vitro | can bind to APJ | 55–75% | – | – |
| apelin-36: APJ agonist purchased from Phoenix Pharmaceuticals (LVQPRGSRNGPGPWQGGRRKFRRQRPRLSHKGPMPF; Apelin-36; UniProt Q9ULZ1 42-77, looked up) | – | – | – | – | – | not significantly different to those of unstimulated cells | BRET ratio versus unstimulated cells (APJ oligomerization, BiFC-BRET) [3]: the same as that of unstimulated cells |
| VSSTTVGFVVPFTIMLTCYFFIAYGRKKRRQRRR [TMD5, HIV TAT-fused interference peptide derived from human APJ transmembrane domain 5] | lacked the effect demonstrated by TMD1, 2, 3, and 4; also recorded: TMD5, APJ, and APJ dimers were detected | no significant effect | but not TMD5, 6, and 7, disrupted APJ dimerization | – | – | – | – |
| YGRKKRRQRRRRLLSIIVVLVVTFALCWMPYHLV [TMD6, HIV TAT-fused interference peptide derived from human APJ transmembrane domain 6] | lacked the effect demonstrated by TMD1, 2, 3, and 4; also recorded: TMD6, APJ, and APJ dimers were detected | no significant effect | but not TMD5, 6, and 7, disrupted APJ dimerization | – | – | – | – |
| YGRKKRRQRRRVSGAVATAVLWVLAALLAMPVMV [TMD4, HIV TAT-fused interference peptide derived from human APJ transmembrane domain 4] | TMD4, TMD4 dimers, TMD4 tetramers, APJ, [APJ + TMD4], APJ dimers, and [APJ + TMD4] dimers were detected | significantly reduced APJ dimer BRET signals | disrupted APJ dimerization; also recorded: can effectively disrupt the formation of APJ homodimers; also recorded: disrupted APJ homodimerization in vitro | can bind to APJ | 55–75% | – | – |
